Values quoted from earlier work, collected in patent publication US20130195827A1, “NUTRIGENOMIC METHODS TO OVERCOME CARBOHYDRATE BINGEING AND OVEREATING” (priority 2011, published 2013).

Legend:
[1] = test system: lipolysis; details: in vitro, p<0.01
[2] = test system: leptin secretion

For `C[C@]12CCC(=O)C=C1CC[C@@H]1[C@@H]2[C@@H](O)C[C@@]2(C)[C@H]1CC[C@]2(O)C(=O)CO` [cortisol], which “basal rate of lipolysis” value [1] is on record?
The value was “significantly reduced”.

For Insulin: hormone insulin, which “increase of leptin secretion” value [2] is on record?
The value was 25%.
